From publication PMC6522510 (Nature Communications, 2019)
Read-outs that look alike come from different tables or passages of the source. Each block holds one molecule with its values, some of them ahead of it.

How the values were obtained:
MOLM-13 [1] = assay: Secondary dose-response HTS, Cell Titer Glo; format: cell-based, human; conditions: secondary high-throughput screen, MOLM-13; for EC50: read-out: average effective concentration, MOLM-13
MV4-11 [2] = assay: Secondary dose-response HTS, Cell Titer Glo; format: cell-based, human; conditions: secondary high-throughput screen, MV4-11; for EC50: Homo sapiens, read-out: average effective concentration, MV4-11
CMS [3] = assay: Secondary dose-response HTS, Cell Titer Glo; format: cell-based, human; conditions: Homo sapiens, HTS, read-out: average effective concentration, CMS
ML2 = assay: Secondary dose-response HTS, Cell Titer Glo; format: cell-based, human; conditions: secondary high-throughput screen, ML-2, read-out: average effective concentration, ML-2
U937 [4] = assay: Secondary dose-response HTS, Cell Titer Glo; format: cell-based, human; conditions: secondary high-throughput screen, U937, read-out: average effective concentration, U937
CHRF288-11 [5] = assay: cells; parameters: species or system AML cell lines (8); Secondary HTS, 10-point dose-response in triplicate, Cell Titer Glo viability, four-parameter fit EC50; conditions: 72 h, read-out: CHRF288-11
CMK [6] = assay: cells; parameters: species or system AML cell lines (8); Secondary HTS, 10-point dose-response in triplicate, Cell Titer Glo viability, four-parameter fit EC50; conditions: Homo sapiens, CMK, 72 h, read-out: CMK
M07e [7] = assay: cells; parameters: species or system AML cell lines (8); Secondary HTS, 10-point dose-response in triplicate, Cell Titer Glo viability, four-parameter fit EC50; conditions: M-07e, 72 h, read-out: M07e
CHRF288-11 [8] = assay: Secondary dose-response HTS, Cell Titer Glo; format: cell-based, human; conditions: secondary high-throughput screen, CHRF288-11; for EC50: Homo sapiens, HTS, read-out: average effective concentration, CHRF288-11
CMK [9] = assay: Secondary dose-response HTS, Cell Titer Glo; format: cell-based, human; conditions: CMK; for EC50: Homo sapiens, read-out: average effective concentration, CMK
MOLM-13 [10] = assay: cells; parameters: species or system AML cell lines (8); Secondary HTS, 10-point dose-response in triplicate, Cell Titer Glo viability, four-parameter fit EC50; conditions: Homo sapiens, MOLM-13, 72 h, read-out: MOLM-13
U937 [11] = assay: cells; parameters: species or system AML cell lines (8); Secondary HTS, 10-point dose-response in triplicate, Cell Titer Glo viability, four-parameter fit EC50; conditions: Homo sapiens, U-937, 72 h, read-out: U937
M07e [12] = assay: Secondary dose-response HTS, Cell Titer Glo; format: cell-based, human; conditions: secondary high-throughput screen; for EC50: read-out: average effective concentration, M07e
MV4-11 [13] = assay: cells; parameters: species or system AML cell lines (8); Secondary HTS, 10-point dose-response in triplicate, Cell Titer Glo viability, four-parameter fit EC50; conditions: Homo sapiens, MV4-11, 72 h, read-out: MV4-11
CMS [14] = assay: cells; parameters: species or system AML cell lines (8); Secondary HTS, 10-point dose-response in triplicate, Cell Titer Glo viability, four-parameter fit EC50; conditions: 72 h, read-out: CMS
[15] = secondary high-throughput screen, CMS
[16] = secondary high-throughput screen

Compound: CN1CC[C@H](c2c(O)cc(O)c3c(=O)cc(-c4ccccc4Cl)oc23)[C@H](O)C1 [ALVOCIDIB]
EC50 (MOLM-13 [1]; Homo sapiens): 36 nM
EC50 (MV4-11 [2]): 50 nM
EC50 (CMS [3]; [15]): 64 nM
EC50 (ML2; Homo sapiens): 47 nM
EC50 (U937 [4]; Homo sapiens, U-937): 29 nM
EC50 (CHRF288-11 [5]): > 10000 nM
EC50 (CMK [6]): > 10000 nM
EC50 (M07e [7]): > 10000 nM

Compound: O=C(/C=C/c1cccc(C(=O)NO)c1)NO [CBHA]
EC50 (MOLM-13 [1]): 2400 nM
average effective concentration, MV4-11 (MV4-11 [2]): Inactive
average effective concentration, CMK (CMK [9]; [16]): Inactive
EC50 (M07e [12]; M07e): 2200 nM
EC50 (ML2): 5200 nM
EC50 (U937 [4]): 1300 nM

Compound: Nc1ncn([C@@H]2O[C@H](CO)[C@@H](O)[C@H]2O)c(=O)n1 [Compound 5-AZACYTIDINE]
average effective concentration, MV4-11 (MV4-11 [2]): Inactive
average effective concentration, CHRF288-11 (CHRF288-11 [8]): Inactive
average effective concentration, M07e (M07e [12]; M07e): Inactive

Compound: CC(C)c1cccc(C(C)C)c1N1C(=O)c2ccc(O)cc2C1=O [Compound 5HPP-33]
average effective concentration, MOLM-13 (MOLM-13 [1]): Inactive
average effective concentration, MV4-11 (MV4-11 [2]): Inactive
average effective concentration, CHRF288-11 (CHRF288-11 [8]): Inactive
average effective concentration, CMK (CMK [9]; [16]): Inactive
average effective concentration, M07e (M07e [12]; M07e): Inactive

Compound: CN[C@@H]1C[C@H]2O[C@@](C)([C@@H]1OC)n1c3ccccc3c3c4c(c5c6ccccc6n2c5c31)C(=O)N[C@H]4O [Compound 7-HYDROXYSTAUROSPORINE]
average effective concentration, M07e (M07e [12]; […]): Inactive

Compound: COc1cccc2c1C(=O)c1c(O)c3c(c(O)c1C2=O)C[C@@](O)(C(C)=O)C[C@@H]3O[C@H]1C[C@H](N)[C@H](O)[C@H](C)O1 [DAUNORUBICIN]
EC50 (MOLM-13 [1]; Homo sapiens): 43 nM
EC50 (MV4-11 [2]): 23 nM
EC50 (CHRF288-11 [8]): 1 nM
EC50 (CMK [9]; [16]): 35 nM
EC50 (M07e [12]; Homo sapiens, M-07e, […]): 9 nM
EC50 (ML2; Homo sapiens): 1 nM
EC50 (U937 [4]; Homo sapiens, U-937): 4.3 nM

Compound: CC(C)(C#N)c1ccc(N2C(=O)OCc3cnc4ccc(-c5cnc6ccccc6c5)cc4c32)cc1 [ETP-46464]
average effective concentration, MOLM-13 (MOLM-13 [1]): Inactive
average effective concentration, MV4-11 (MV4-11 [2]): Inactive
average effective concentration, M07e (M07e [12]; […]): Inactive

Compound: CC(C)c1cc(-c2n[nH]c(=O)n2-c2ccc3c(ccn3C)c2)c(O)cc1O [GANETESPIB]
EC50 (MOLM-13 [1]; Homo sapiens): 2.4 nM
EC50 (MV4-11 [2]): 1 nM
EC50 (CHRF288-11 [8]): 7 nM
EC50 (CMK [9]): 2.3 nM
EC50 (CMS [3]): 10 nM
EC50 (ML2; Homo sapiens): 5.4 nM
EC50 (U937 [4]; Homo sapiens, U-937): 1.6 nM
EC50 (CMS [14]): 9.6 nM
EC50 (M07e [7]): > 10000 nM

More lines, main results first:

EC50 (MV4-11 [2]): 8 nM
EC50 (MOLM-13 [10]): 9.4 nM
EC50 (U937 [11]): > 10000 nM
Compound: CC(C)c1cc(C(=O)N2Cc3ccc(CN4CCN(C)CC4)cc3C2)c(O)cc1O [AT13387]
EC50 (CHRF288-11 [8]): 39 nM
EC50 (CMK [9]): 11 nM
EC50 (CMS [3]): 34 nM
EC50 (ML2; Homo sapiens): 23 nM
EC50 (M07e [7]): > 10000 nM

EC50 (MOLM-13 [10]): > 10000 nM
EC50 (MV4-11 [13]): > 10000 nM
EC50 (U937 [11]): > 10000 nM
Compound: Cn1c(Nc2ccc(C(F)(F)F)cc2)nc2cc(Oc3ccnc(-c4ncc(C(F)(F)F)[nH]4)c3)ccc21 [CHIR-265]
EC50 (CHRF288-11 [8]): 6800 nM
EC50 (CMS [3]; [15]): 10000 nM
EC50 (ML2; Homo sapiens): > 10000 nM
EC50 (CMK [6]): > 10000 nM
EC50 (M07e [7]): > 10000 nM

EC50 (MOLM-13 [1]; Homo sapiens): 170 nM
EC50 (MV4-11 [2]): 590 nM
EC50 (U937 [4]; Homo sapiens, U-937): 90 nM
Compound: C[C@@H](Oc1cc(-n2cnc3ccc(CN4CCN(C)CC4)cc32)sc1C(N)=O)c1ccccc1C(F)(F)F [GSK461364]
EC50 (CMK [9]): 750 nM
EC50 (CMS [3]): 10000 nM
EC50 (ML2; Homo sapiens): 59 nM
EC50 (CHRF288-11 [5]): > 10000 nM
EC50 (M07e [7]): > 10000 nM
